Reference: US7247734B2 (Vernalis (Cambridge) Limited, priority 2001, dated 2007)

Tested on: HSP70 and client protein (CDK4) expression in HT29 cells
Experiment: Western blotting of HSP70 and CDK4 in HT29 cells
Format: cell-based, human
Conditions: 24 hours, various concentrations
Procedure: The cellular effects of HSP90 inhibitors can be measured using a number of molecular markers. As already mentioned, HSP90 inhibition leads to the depletion of several important cellular signalling proteins. […] Depletion is normally observed by 6 h, with maximum depletion occurring at 24 h. As well as RAF-1, depletion of several other HSP90 client proteins can be measured by immunoblotting e.g., CDK4, ERBB2. However, it is important to note that some of these proteins are cell line specific e.g., ERBB2 is expressed mainly in breast, thyroid, kidney and some ovarian tumour cell lines. Another very important marker of HSP90 inhibition is heat shock protein 70 (HSP70). A HSF-1 (heatshock factor 1) dependent increase in HSP70 levels has been reported by us and other groups (see, e.g., Whitesell et al., 1994; Clarke et al., 2000) and this effect can serve as a positive indicator of HSP90 inhibitor action. The immunoblotting method described is based on standard techniques but is described in detail for ease of reference.
Prepare as required and store at −20° C. • (4) Bicinchoninic acid (BCA) protein assay reagents (PerBio Science UK, Ltd., Chester, UK). • (5) Casein blocking buffer (0.5% casein, 0.02% thimerosal, in PBS). Store at 4° C. for up to 2 weeks. • (6) Wash buffer (phosphate buffered saline, PBS) containing 0.05% Tween 20). • (7) Tris-glycine gradient polyacrylamide precast gels (4–20%) (1 mm thick) (Novex, InVitrogen, Groningen, NL). • (8) Nitro-cellulose membrane (0.2 μm pore size) (InVitrogen, Groningen, NL). • (9) Ponceau Red stain (2% w/v in 30% TCA/30% […], Sigma Aldrich Ltd., Pool, UK). • (10) Enhanced chemiluminescence (SuperSignal) reagents (PerBio Science UK, Ltd., Chester, UK). • (11) Photographic film (Hyperfilm ECL, Amersham Pharmacia Biotech, Little Chalfont, Bucks, UK). Method
The following protocol was used: • (1) Lyse cells (approx 4×10^6) in 100 μl lysis buffer for 30 minutes on ice. When adding the lysis buffer, shear cells by pipetting up and down using a Gilson P200 pipette. • (2) Spin lysates for 10 min at 13,000 rpm at 4° C., retrieve supernatant and store at −70° C. • (3) Determine protein concentration using BCA protein assay reagents. • (4) Load samples of cell lysates (50 μg protein/lane) onto gel and separate proteins by SDS-polyacrylamide gel electrophoresis (SDS-PAGE) using a 4–20% Tris-glycine gel. • (5) Transfer proteins to nitrocellulose membrane using optimum conditions for the equipment available. For example, 150 mA for 2 h using the Mighty Small transfer system (Hoeffer TE22 Mini Tank Transphor Unit, Amersham Pharmacia Biotech, Little Chalfont, Bucks, UK). […]
Comments • (1) The protein bands are normally evaluated visually. […]

`CCc1cc(-c2n[nH]c(C)c2-c2ccc3c(c2)OCCO3)c(O)cc1O` [CCT018159, 4-[4-(2,3-Dihydro-benzo[1,4]dioxin-6-yl)-5-methyl-1H-pyrazol-3-yl]-6-ethyl-benzene-1,3-diol] was tested, and the “CDK4 client protein expression (immunoblot)” value was “depleted” and the “HSP70 expression (immunoblot)” value was “elevated HSP70 expression”.
